According to patent publication US9144576B2, “Topical antiviral formulations” (3B Pharmaceuticals, Inc., priority 2008, dated 2015):

Legend:
HSV-2 = assay: In vitro assay for anti-HSV-2 mRNA activity (QuantiGene Plex 2.0 bDNA) in infected primary Adult Human Dermal Microvascular Endothelial Cells; type: cell-based, HSV type 2; settings: variable slope fit; for LogIC50 (best-fit value): concentrations in μM, overnight incubation, triplicate
Description: (§1) In vitro assays for anti-HSV-1 and anti-HSV-2 mRNA activity are described in Example 1. Confluent Vero cell monolayers were infected with HSV type 1 or HSV type 2 at a multiplicity of infection of 10 and the resultant virus was used to infect primary Adult Human Dermal Microvascular Endothelial Cells for 1 hour; the supernatant was replaced with fresh culture media and then incubated overnight in the presence of various concentrations of acyclovir, 2-deoxy-D-glucose or an equimolar combination of the two compounds. After overnight incubation, the cells were harvested, lysed, and subjected to QuantiGene Plex 2.0 assay (Panomics, Inc., Fremont, Calif.) for quantitative assay of HSV-1 and HSV-2 mRNA. The QuantiGene Plex 2.0 assay combines branched DNA (bDNA) signal amplification and multi-analyte profiling beads (xMAP®) technologies to enable the detection and quantitation of multiple mRNA targets simultaneously. Briefly, confluent Vero cell monolayers were infected with HSV type 1 or HSV type 2 at a multiplicity of infection of 10 and the resultant virus was used to infect primary Adult Human Dermal Microvascular Endothelial Cells for 1 hour and then the supernatant was replaced with fresh culture media and then incubated overnight in the presence of various concentrations of acyclovir, 2-deoxy-D-glucose or an equimolar combination of the two compounds. […], this assay is considered to be a more sensitive and specific assay (bDNA) for the final readout when compared to an ELISA. The ELISA method while easier, can lack specificity to determine the difference between HSV1 and HSV2. The bDNA assay is a hybridization-based method of target-specific RNA quantitation that amplifies signal rather than target RNA, using labeled DNA probes. The QuantiGene Plex 2.0 system utilizes fluorescent microspheres (Capture Beads) as a support to capture specific RNA molecules. The ability to quantify multiple target-specific RNA molecules in a single sample lies in the design of the Probe Sets. […] The resulting fluorescence signal associated with individual Capture Beads is read on a Luminex flow cytometer. Signal is reported as median fluorescence intensity (MFI) and is proportional to the number of target RNA molecules present in the sample. […]

HSV-1 = assay: In vitro assay for anti-HSV-1 mRNA activity (QuantiGene Plex 2.0 bDNA) in infected primary Adult Human Dermal Microvascular Endothelial Cells; type: cell-based, HSV type 1; settings: variable slope fit; for LogIC50 (best-fit value): concentrations in μM, overnight incubation, triplicate
Description: as §1

[1] = topical versus oral; cited from earlier work

| SMILES | HillSlope (best-fit value) (HSV-2) | LogIC50 (best-fit value) (HSV-2) | HillSlope (best-fit value) (HSV-1) | LogIC50 (best-fit value) (HSV-1) | drug concentration in the skin after local application, lower than after given orally [1] |
| --- | --- | --- | --- | --- | --- |
| O=CC[C@@H](O)[C@H](O)[C@H](O)CO [2 Deoxy D glucose, 2-deoxy-D-glucose] | −3.957 | 0.9029 | −2.395 | 1.32 | – |
| Nc1nc2c(ncn2COCCO)c(=O)[nH]1 [Acyclovir, 9-(2-hydroxyethoxymethyl)guanine] | −1.113 | 0.2805 | −1.108 | 0.2509 | 2-3 times |
